# Patent US20180235914A1, “PR[…] PHA[…] OF […] A & B AGONISTS AGAINST NEURODEGENERATIVE AND NEURODEVELOPMENTAL DISEASES” (priority 2017, published 2018)
# Key:
# [1] = tested on: PTZ induced behavioral effects in mice; test: Antagonism of Pentylenetetrazole (PTZ) induced behavioral effects in mice; type: in vivo; details: compounds 50 to 200 mg/kg (ip), PTZ 10 to 70 mg/kg (ip)
# Procedure: In good agreement with the above pharmacological properties, GS, GP, GL and PG, at doses of 50 to 200 mg/kg, intraperitoneal (ip), in mice antagonized all the behavioral effects (in mice) corresponding to the symptoms, in humans, announcing the development of the neurodegenerative and neurodevelopmental diseases, i.e., anxiety, fear, social disconnection, agressivity, compulsive reactions, hypermotility, stereotypic activity, pain, seizures and lethargy, appearing at various degrees according to the amplitude of the Glutamate/GABA imbalance and to the brain regions (Basal Ganglia, Hippocampus, Cortex) affected by the above imbalance. Indeed, all the above behavioral effects (obtained, in mice, by administration of the GABAergic antagonist Pentylenetetrazole (PTZ) at 10 to 70 mg/kg, (ip): with 10 to 40 mg/kg (ip) giving fear, anxiety, social disconnection, and agressivity, hypermotility and stereotypic activity—the latter being better expressed by previous (reserpine induced) hypersensibilisation of the brain DA receptors—and seizures (obtained at 50 to 70 mg/kg (ip) of PTZ), were antagonized by GS, GP, GL, and PG at 50 to 200 mg/kg (ip).
# Rats = test: Animal models in Rats (haloperidol or reserpine catalepsy, reserpine palpebral ptosis, apomorphine and haloperidol stereotypies); type: in vivo; details: inferred from catalepsy, ptosis and stereotypy models
# GABA receptors = test: Affinity for the GABA receptors; type: binding
# Lipophilicity = type: physicochemical; details: more specifically for GS, GP and GL
SMILES,"behavioral effects obtained by PTZ (fear, anxiety, social disconnection, agressivity, hypermotility, stereotypic activity, seizures) [1]",preferential brain region of action (Rats),affinities for the GABA receptors (GABA receptors),lipophilicities (Lipophilicity)
"CCCCC/C=C\C/C=C\CCCCCCCC(=O)NCCCC(=O)O [GL, GABAlinoleamide]",antagonized,preferentially acting in the striatum,low affinities,high lipophilicities
"CCCCCCCCCCCCCCCC(=O)NCCCC(=O)O [GP, GABApalmitamide]",antagonized,preferentially acting in the striatum,low affinities,high lipophilicities
"CCCCCCCCCCCCCCCCCC(=O)NCCCC(=O)O [GS, GABAstearamide]",antagonized,preferentially acting in substantia nigra,low affinities,high lipophilicities
"NC(=O)CCC/N=C(\c1ccc(Cl)cc1)c1cc(F)ccc1O [PG, reference compound]",antagonized,preferentially acting in substantia nigra,low affinities,high lipophilicities
